Assay results from patent US20240067693A1, “POLYPEPTIDES AND USES THEREOF” (MEDIMMUNE LIMITED, priority 2020, published 2024).
Read-outs that look alike come from different tables or passages of the source. Numbered stars: 1 amine (or outer) side, 2 acyl side, 3 side chain; on linkers, the order of the positions; unused ones are H or OH. Bridge positions count the residues as written; N and C are the ends. Square brackets hold non-standard residues; d marks the D form. Side chains are listed from the residue outwards. Peptide text beside a SMILES is read from it. * marks the point of attachment. C18 diacid = O=C(O)CCCCCCCCCCCCCCCCC(=O)*; γGlu = O=C(O)[C@H](CCC(=O)[*:2])N[*:1]; Aib = CC(C)(N)C(=O)O

Legend:
[1] = target: T1, human amylin receptor (calcitonin receptor co-expressed with receptor activity modifying protein, RAMP3) (hAMYR3) (Homo sapiens, UniProt O60896+P30988); experiment: cAMP production in 1321N1 cells with stable recombinant expression of human amylin receptor (hAMYR3); type: cell-based; settings: for Ratio (selectivity hAMYR vs hCTR, ratio of EC50 values at the two receptors): EC50 hCTR / EC50 hAMYR3
T1 construct: expressed in transfected cells
T1 sequence (P30988 25-474): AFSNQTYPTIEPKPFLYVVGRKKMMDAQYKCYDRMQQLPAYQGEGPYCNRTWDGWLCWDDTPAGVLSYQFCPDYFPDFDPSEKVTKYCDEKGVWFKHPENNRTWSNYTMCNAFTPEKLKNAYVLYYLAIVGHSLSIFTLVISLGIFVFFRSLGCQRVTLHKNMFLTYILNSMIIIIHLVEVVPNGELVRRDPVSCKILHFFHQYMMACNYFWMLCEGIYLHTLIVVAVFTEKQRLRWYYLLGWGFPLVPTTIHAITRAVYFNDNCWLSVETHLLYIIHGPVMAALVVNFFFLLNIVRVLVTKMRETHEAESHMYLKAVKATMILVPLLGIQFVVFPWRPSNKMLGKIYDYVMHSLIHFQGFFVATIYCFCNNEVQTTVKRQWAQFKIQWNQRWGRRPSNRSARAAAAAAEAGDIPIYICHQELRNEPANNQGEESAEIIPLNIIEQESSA
T1 sequence (O60896 24-148 partner): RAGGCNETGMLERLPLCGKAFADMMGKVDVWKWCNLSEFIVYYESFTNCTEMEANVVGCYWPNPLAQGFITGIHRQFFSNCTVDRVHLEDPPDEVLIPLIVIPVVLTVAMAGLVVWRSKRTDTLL
Outline: (§1)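 EC50 values come from 4-parameter logistic fits of HTRF cAMP signal, normalised to maximal calcitonin or amylin effect. Peptides were tested in duplicate for 30 min at RT in IBMX-containing (0.5 mM) BSA/HEPES buffer pH 7.4 on stable 1321N1 (human CTR, AMYR3) or HEK (rat CTR, AMYR3) lines.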

[2] = target: T2, human calcitonin receptor (hCTR) (Homo sapiens, UniProt P30988); experiment: cAMP production in 1321N1 cells with stable recombinant expression of human calcitonin receptor (hCTR); type: cell-based
T2 construct: expressed in transfected cells
T2 sequence (P30988 25-474): T1 sequence (P30988 25-474)
Outline: as §1

[3] = cAMP, 1321N1 cells, assay buffer with 0.1% BSA, read-out: EC50 (pM) hAMYR3
[4] = cAMP, 1321N1 cells, assay buffer with 0.1% BSA, read-out: EC50 (pM) hCTR

Row | SMILES | EC50 [1] [pM] | EC50 [2] [pM] | Ratio (selectivity hAMYR vs hCTR, ratio of EC50 values at the two receptors) [1] | EC50 [1, 3] [pM] | EC50 [2, 4] [pM]
1 | CC[C@H](C)[C@H](NC(=O)[C@@H]1CCCN1C(=O)CNC(=O)[C@H](Cc1ccccc1)NC(=O)[C@H](CC(N)=O)NC(=O)C(C)(C)NC(=O)[C@H](CO)NC(=O)[C@H](CO)NC(=O)[C@H](Cc1c[nH]cn1)NC(=O)[C@@H](NC(=O)[C@H](CC(C)C)NC(=O)[C@H](Cc1ccccc1)NC(=O)[C@H](CC(N)=O)NC(=O)[C@H](C)NC(=O)[C@H](CC(C)C)NC(=O)[C@H](CCCNC(=N)N)NC(=O)[C@H](CCC(N)=O)NC(=O)[C@@H](NC(=O)[C@H](C)NC(=O)[C@@H]1CSSC[C@H](NC(=O)[C@@H](N)CCCCNC(=O)CC[C@H](NC(=O)CC[C@H](NC(=O)CCCCCCCCCCCCCCCCC(=O)O)C(=O)O)C(=O)O)C(=O)N[C@@H](CC(N)=O)C(=O)N[C@@H]([C@@H](C)O)C(=O)N[C@@H](C)C(=O)N[C@@H]([C@@H](C)O)C(=O)N1)[C@@H](C)O)C(C)C)C(=O)N[C@@H](CC(C)C)C(=O)N1CCC[C@H]1C(=O)N1CCC[C@H]1C(=O)N[C@H](C(=O)NC(C)(C)C(=O)N[C@H](C(=O)NCC(=O)N[C@@H](CO)C(=O)N[C@@H](CC(N)=O)C(=O)N[C@H](C(=O)N[C@@H](Cc1ccc(O)cc1)C(N)=O)[C@@H](C)O)C(C)C)[C@@H](C)O [Peptide 89, K(γE-γE-C18diacid)[CNTATCJATQRLANFLVHSS(Aib)NFGPILPPT(Aib)VGSNTY-amide] (H-K([γGlu-γGlu-C18 diacid])CNTATCATQRLANFLVHSS[Aib]NFGPILPPT[Aib]VGSNTY-NH2; disulfide 2-7; N-terminus assumed) | 447 | 8240 | – | – | –
2 | CC[C@H](C)[C@H](NC(=O)[C@@H]1CCCN1C(=O)CNC(=O)[C@H](Cc1ccccc1)NC(=O)[C@H](CC(N)=O)NC(=O)C(C)(C)NC(=O)[C@H](CO)NC(=O)[C@H](CO)NC(=O)[C@H](Cc1c[nH]cn1)NC(=O)[C@H](CCCNC(=N)N)NC(=O)[C@H](CC(C)C)NC(=O)[C@H](Cc1ccccc1)NC(=O)[C@H](CC(N)=O)NC(=O)[C@H](C)NC(=O)[C@H](CC(C)C)NC(=O)[C@H](CCCNC(=N)N)NC(=O)[C@H](CCC(N)=O)NC(=O)[C@@H](NC(=O)[C@H](C)NC(=O)[C@@H]1CSSC[C@H](NC(=O)[C@@H](N)CCCCNC(=O)CC[C@H](NC(=O)CC[C@H](NC(=O)CCCCCCCCCCCCCCCCC(=O)O)C(=O)O)C(=O)O)C(=O)N[C@@H](CC(N)=O)C(=O)N[C@@H]([C@@H](C)O)C(=O)N[C@@H](C)C(=O)N[C@@H]([C@@H](C)O)C(=O)N1)[C@@H](C)O)C(=O)N[C@@H](CC(C)C)C(=O)N1CCC[C@H]1C(=O)N1CCC[C@H]1C(=O)N[C@H](C(=O)NC(C)(C)C(=O)N[C@H](C(=O)NCC(=O)N[C@@H](CO)C(=O)N[C@@H](CC(N)=O)C(=O)N[C@H](C(=O)N[C@@H](Cc1ccc(O)cc1)C(N)=O)[C@@H](C)O)C(C)C)[C@@H](C)O [Peptide 90, K(γE-γE-C18diacid)[CNTATC]ATQRLANFLRHSS(Aib)NFGPILPPT(Aib)VGSNTY-amide] (H-K([γGlu-γGlu-C18 diacid])CNTATCATQRLANFLRHSS[Aib]NFGPILPPT[Aib]VGSNTY-NH2; disulfide 2-7; N-terminus assumed) | – | – | 15 | 1060 | 15600
3 | CC[C@H](C)[C@H](NC(=O)[C@@H]1CCCN1C(=O)CNC(=O)[C@H](Cc1ccccc1)NC(=O)[C@H](CC(N)=O)NC(=O)C(C)(C)NC(=O)[C@H](CO)NC(=O)[C@H](CO)NC(=O)[C@H](Cc1c[nH]cn1)NC(=O)[C@@H](NC(=O)[C@H](CC(C)C)NC(=O)[C@H](Cc1ccccc1)NC(=O)[C@H](CC(N)=O)NC(=O)[C@H](C)NC(=O)[C@H](CC(C)C)NC(=O)[C@H](CCCNC(=N)N)NC(=O)[C@H](CCC(N)=O)NC(=O)[C@@H](NC(=O)[C@H](C)NC(=O)[C@@H]1CSSC[C@H](NC(=O)[C@@H](N)CCCCNC(=O)CC[C@H](NC(=O)CC[C@H](NC(=O)CCCCCCCCCCCCCCCCC(=O)O)C(=O)O)C(=O)O)C(=O)N[C@@H](CC(N)=O)C(=O)N[C@@H]([C@@H](C)O)C(=O)N[C@@H](C)C(=O)N[C@@H]([C@@H](C)O)C(=O)N1)[C@@H](C)O)C(C)C)C(=O)N[C@@H](CC(C)C)C(=O)N1CCC[C@H]1C(=O)N1CCC[C@H]1C(=O)N[C@H](C(=O)N[C@@H](CC(N)=O)C(=O)N[C@H](C(=O)NCC(=O)N[C@@H](CO)C(=O)NC(C)(C)C(=O)N[C@H](C(=O)N[C@@H](Cc1ccc(O)cc1)C(N)=O)[C@@H](C)O)C(C)C)[C@@H](C)O [Peptide 91, K(γE-γE-C18diacid)[CNTATC]ATQRLANFLVHSS(Aib)NFGPILPPTNVGS(Aib)TY-amide] (H-K([γGlu-γGlu-C18 diacid])CNTATCATQRLANFLVHSS[Aib]NFGPILPPTNVGS[Aib]TY-NH2; disulfide 2-7; N-terminus assumed) | – | – | 12 | 200 | 2360
4 | CC[C@H](C)[C@H](NC(=O)[C@@H]1CCCN1C(=O)CNC(=O)[C@H](Cc1ccccc1)NC(=O)[C@H](CC(N)=O)NC(=O)C(C)(C)NC(=O)[C@H](CO)NC(=O)[C@H](CO)NC(=O)[C@H](Cc1c[nH]cn1)NC(=O)[C@H](CCCNC(=N)N)NC(=O)[C@H](CC(C)C)NC(=O)[C@H](Cc1ccccc1)NC(=O)[C@H](CC(N)=O)NC(=O)[C@H](C)NC(=O)[C@H](CC(C)C)NC(=O)[C@H](CCCNC(=N)N)NC(=O)[C@H](CCC(N)=O)NC(=O)[C@@H](NC(=O)[C@H](C)NC(=O)[C@@H]1CSSC[C@H](NC(=O)[C@@H](N)CCCCNC(=O)CC[C@H](NC(=O)CC[C@H](NC(=O)CCCCCCCCCCCCCCCCC(=O)O)C(=O)O)C(=O)O)C(=O)N[C@@H](CC(N)=O)C(=O)N[C@@H]([C@@H](C)O)C(=O)N[C@@H](C)C(=O)N[C@@H]([C@@H](C)O)C(=O)N1)[C@@H](C)O)C(=O)N[C@@H](CC(C)C)C(=O)N1CCC[C@H]1C(=O)N1CCC[C@H]1C(=O)N[C@H](C(=O)N[C@@H](CC(N)=O)C(=O)N[C@H](C(=O)NCC(=O)N[C@@H](CO)C(=O)NC(C)(C)C(=O)N[C@H](C(=O)N[C@@H](Cc1ccc(O)cc1)C(N)=O)[C@@H](C)O)C(C)C)[C@@H](C)O [Peptide 92, K(γE-γE-C18diacid)[CNTATC]ATQRLANFLRHSS(Aib)NFGPILPPTNVGS(Aib)TY-amide] (H-K([γGlu-γGlu-C18 diacid])CNTATCATQRLANFLRHSS[Aib]NFGPILPPTNVGS[Aib]TY-NH2; disulfide 2-7; N-terminus assumed) | – | – | 130 | 341 | 44400
5 | CC(C)C[C@H](NC(=O)[C@H](CCCNC(=N)N)NC(=O)[C@H](CCC(N)=O)NC(=O)[C@@H](NC(=O)[C@H](C)NC(=O)[C@@H]1CSSC[C@H](NC(=O)[C@H](CCCCN)NC(=O)[C@@H](N)CCCCNC(=O)CC[C@H](NC(=O)CCCCCCCCCCCCCCCCC(=O)O)C(=O)O)C(=O)N[C@@H](CC(N)=O)C(=O)N[C@@H]([C@@H](C)O)C(=O)N[C@@H](C)C(=O)N[C@@H]([C@@H](C)O)C(=O)N1)[C@@H](C)O)C(=O)N[C@@H](C)C(=O)N[C@@H](CC(N)=O)C(=O)N[C@@H](Cc1ccccc1)C(=O)N[C@@H](CC(C)C)C(=O)NC(C)(C)C(=O)N[C@@H](Cc1c[nH]cn1)C(=O)N[C@@H](CO)C(=O)N[C@@H](CO)C(=O)N[C@@H](CC(N)=O)C(=O)N[C@@H](CC(N)=O)C(=O)N[C@@H](Cc1ccccc1)C(=O)NCC(=O)N1CCC[C@H]1C(=O)NC(C)(C)C(=O)N[C@@H](CC(C)C)C(=O)N1CCC[C@H]1C(=O)N1CCC[C@H]1C(=O)N[C@H](C(=O)N[C@@H](CC(N)=O)C(=O)N[C@H](C(=O)NCC(=O)N[C@@H](CO)C(=O)N[C@@H](CC(N)=O)C(=O)N[C@H](C(=O)N[C@@H](Cc1ccc(O)cc1)C(N)=O)[C@@H](C)O)C(C)C)[C@@H](C)O [Peptide 94, K(γE-C18diacid)K[CNTATC]ATQRLANFL(Aib)HSSNNFGP(Aib)LPPTNVGSNTY-amide] (H-K([γGlu-C18 diacid])KCNTATCATQRLANFL[Aib]HSSNNFGP[Aib]LPPTNVGSNTY-NH2; disulfide 3-8; N-terminus assumed) | – | – | 6 | 322 | 1900
